Measured values as given in PubChem BioAssay AID1259407 (Chemical Carcinogenesis Research Information System (CCRIS), 2018).
Active and inactive are the calls of the source. No rule for the calls is given here.

Test system: CCRIS mutagenicity, Ames/micronucleus/aberration tests
Test: CCRIS mutagenicity studies

Measured: mutagenic call

CN(C)N=O
active: End Point: IN VITRO CHROMOSOMAL ABERRATIONS, Test System: CHL/IU CELLS, Metabolic Activation: RAT, LIVER, S-9, PHENOBARBITAL AND 5,6-BENZOFLAVONE active; positive (structural changes) | End Point: IN VITRO MICRONUCLEUS, Test System: CHL/IU CELLS, Metabolic Activation: RAT, LIVER, S-9, PHENOBARBITAL AND 5,6-BENZOFLAVONE active; positive | End Point: IN VIVO MICRONUCLEUS, Test System: HEPATOCYTES, Species: RAT, Strain/Sex: FISHER 344 OR SD/MALE, Route: ORAL OR IP active; positive | End Point: In vivo micronucleus, Test System: Liver, Species: Mouse, Strain/Sex: Big Blue/Male, Route: Oral active; positive for laci mutation frequency in liver; high percentage of g:c to t:a t | End Point: In vivo micronucleus, Test System: Micronucleated hepatocytes, Species: Rat, Strain/Sex: F344/Male, Route: Oral active; positive (p<0.01) | Test System: AMES SALMONELLA TYPHIMURIUM, Strain/Indicator: NM2000, Metabolic Activation: RAT, LIVER, S-9, ISONIAZID, Method: PREINCUBATION active; positive | Test System: AMES SALMONELLA TYPHIMURIUM, Strain/Indicator: NM2009, Metabolic Activation: RAT, LIVER, S-9, ISONIAZID, Method: PREINCUBATION active; positive | Test System: AMES SALMONELLA TYPHIMURIUM, Strain/Indicator: TA92, Metabolic Activation: MOUSE, LIVER, S-10, Method: PREINCUBATION active; positive | Test System: AMES SALMONELLA TYPHIMURIUM, Strain/Indicator: TA100, Metabolic Activation: HAMSTER, LIVER, S-9, AROCLOR 1254, NADPH GENERATING SYSTEM, CYTOSOL, Method: PREINCUBATION active; positive | Test System: AMES SALMONELLA TYPHIMURIUM, Strain/Indicator: TA100, Metabolic Activation: HAMSTER, LIVER, S-9, Method: PREINCUBATION active; positive | Test System: AMES SALMONELLA TYPHIMURIUM, Strain/Indicator: TA100, Metabolic Activation: MICROSOMES, CYTOSOL, Method: PREINCUBATION active; positive | Test System: AMES SALMONELLA TYPHIMURIUM, Strain/Indicator: TA100, Metabolic Activation: MOUSE, INTACT UROTHELIAL CELLS, Method: FLUCTUATION TEST active; positive | Test System: AMES SALMONELLA TYPHIMURIUM, Strain/Indicator: TA100, Metabolic Activation: MOUSE, LIVER, S-9, PHENOBARBITAL AND BETA-NAPHTHOFLAVONE, Method: PREINCUBATION active; positive | Test System: AMES SALMONELLA TYPHIMURIUM, Strain/Indicator: TA100, Metabolic Activation: MOUSE, LIVER, S-9, PHENOBARBITAL, BETA-NAPHTHOFLAVONE, ISOSAFROLE, ETHANOL, PREGNENOLONE AND 16ALPHA-CARBONITRILE, Method: PREINCUBATION active; positive | Test System: AMES SALMONELLA TYPHIMURIUM, Strain/Indicator: TA100, Metabolic Activation: RAT, INTACT UROTHELIAL CELLS, Method: FLUCTUATION TEST active; positive | Test System: AMES SALMONELLA TYPHIMURIUM, Strain/Indicator: TA100, Metabolic Activation: RAT, LIVER, S-9, AROCLOR 1254, (PREGNANT MARE SERUM), Method: PREINCUBATION active; positive | Test System: AMES SALMONELLA TYPHIMURIUM, Strain/Indicator: TA100, Metabolic Activation: RAT, LIVER, S-9, AROCLOR 1254, Method: PREINCUBATION active; positive | Test System: AMES SALMONELLA TYPHIMURIUM, Strain/Indicator: TA100, Metabolic Activation: RAT, LIVER, S-9, CYCLOHEXANOL, Method: PREINCUBATION active; positive | Test System: AMES SALMONELLA TYPHIMURIUM, Strain/Indicator: TA100, Metabolic Activation: RAT, LIVER, S-9, ETHANOL, Method: PREINCUBATION active; positive | Test System: AMES SALMONELLA TYPHIMURIUM, Strain/Indicator: TA100, Metabolic Activation: RAT, LIVER, S-9, KC500 OR PHENOBARBITAL, Method: LIQUID SUSPENSION active; positive | Test System: AMES SALMONELLA TYPHIMURIUM, Strain/Indicator: TA100, Metabolic Activation: RAT, LIVER, S-9, N-BENZYLIMIDAZOLE, Method: PREINCUBATION active; positive | Test System: AMES SALMONELLA TYPHIMURIUM, Strain/Indicator: TA100, Metabolic Activation: RAT, LIVER, S-9, PHENOBARBITAL, Method: PREINCUBATION active; positive | Test System: AMES SALMONELLA TYPHIMURIUM, Strain/Indicator: TA104, Metabolic Activation: HAMSTER, LIVER, S-9, AROCLOR 1254, NADPH GENERATING SYSTEM, CYTOSOL, Method: PREINCUBATION active; positive | Test System: AMES SALMONELLA TYPHIMURIUM, Strain/Indicator: TA104, Metabolic Activation: HAMSTER, LIVER, S-9, AROCLOR 1254, Method: PREINCUBATION active; positive | Test System: AMES SALMONELLA TYPHIMURIUM, Strain/Indicator: TA104, Metabolic Activation: HAMSTER, LIVER, S-9, Method: PREINCUBATION active; positive | Test System: AMES SALMONELLA TYPHIMURIUM, Strain/Indicator: TA104, Metabolic Activation: MICROSOMES, CYTOSOL, Method: PREINCUBATION active; positive | Test System: AMES SALMONELLA TYPHIMURIUM, Strain/Indicator: TA104, Metabolic Activation: RAT, LIVER, S-9, AROCLOR 1254, Method: PREINCUBATION active; positive | Test System: AMES SALMONELLA TYPHIMURIUM, Strain/Indicator: TA104, Metabolic Activation: RAT, LIVER, S-9, Method: PREINCUBATION active; positive | Test System: AMES SALMONELLA TYPHIMURIUM, Strain/Indicator: TA1530, Metabolic Activation: RAT, LIVER, S-9, AROCLOR 1254, Method: PREINCUBATION active; positive | Test System: AMES SALMONELLA TYPHIMURIUM, Strain/Indicator: TA1530, Metabolic Activation: RAT, LIVER, S-9, Method: STANDARD PLATE active; positive | Test System: AMES SALMONELLA TYPHIMURIUM, Strain/Indicator: TA1535 (PSK1002), Metabolic Activation: RAT, LIVER, S-9, ISONIAZID, Method: PREINCUBATION active; positive | Test System: AMES SALMONELLA TYPHIMURIUM, Strain/Indicator: TA1535, Metabolic Activation: RAT, LIVER, HEPATOCYTES, Method: PREINCUBATION active; positive | Test System: AMES SALMONELLA TYPHIMURIUM, Strain/Indicator: TA1535, Metabolic Activation: RAT, LIVER, MICROSOMES, KANECHLOR 500, Method: PREINCUBATION active; positive | Test System: AMES SALMONELLA TYPHIMURIUM, Strain/Indicator: TA1535, Metabolic Activation: RAT, LIVER, S-9, AROCLOR 1254, (PREGNANT MARE SERUM), Method: PREINCUBATION active; positive | Test System: AMES SALMONELLA TYPHIMURIUM, Strain/Indicator: TA1535, Metabolic Activation: RAT, LIVER, S-9, AROCLOR 1254, Method: PREINCUBATION active; positive | Test System: AMES SALMONELLA TYPHIMURIUM, Strain/Indicator: TA1535, Metabolic Activation: RAT, LIVER, S-9, AROCLOR, Method: PREINCUBATION active; positive | Test System: AMES SALMONELLA TYPHIMURIUM, Strain/Indicator: TA1535, Metabolic Activation: RAT, LIVER, S-9, KC500 OR PHENOBARBITAL, Method: LIQUID SUSPENSION active; positive | Test System: AMES SALMONELLA TYPHIMURIUM, Strain/Indicator: TA1535, Metabolic Activation: RAT, LIVER, S-9, SODIUM PHENOBARBITONE, Method: PREINCUBATION active; positive | Test System: AMES SALMONELLA TYPHIMURIUM, Strain/Indicator: TA1535, Metabolic Activation: S-9, Method: PREINCUBATION active; positive
inactive: End Point: IN VITRO CHROMOSOMAL ABERRATIONS, Test System: CHO CELLS, Metabolic Activation: NONE inactive; negative | End Point: IN VIVO MICRONUCLEUS, Test System: PERIPHERAL BLOOD RETICULOCYTES, Species: RAT, Strain/Sex: FISHER 344 OR SD/MALE, Route: ORAL OR IP inactive; negative | Test System: AMES SALMONELLA TYPHIMURIUM, Strain/Indicator: TA97, Metabolic Activation: NONE, Method: STANDARD PLATE inactive; negative | Test System: AMES SALMONELLA TYPHIMURIUM, Strain/Indicator: TA97, Metabolic Activation: RAT, LIVER, S-9, AROCLOR 1254, Method: STANDARD PLATE inactive; negative | Test System: AMES SALMONELLA TYPHIMURIUM, Strain/Indicator: TA98, Metabolic Activation: NONE, Method: STANDARD PLATE inactive; negative | Test System: AMES SALMONELLA TYPHIMURIUM, Strain/Indicator: TA98, Metabolic Activation: RAT, LIVER, S-9, AROCLOR 1254, Method: STANDARD PLATE inactive; negative | Test System: AMES SALMONELLA TYPHIMURIUM, Strain/Indicator: TA100, Metabolic Activation: HUMAN, LIVER, S-9, Method: PREINCUBATION inactive; negative | Test System: AMES SALMONELLA TYPHIMURIUM, Strain/Indicator: TA100, Metabolic Activation: NONE, Method: PREINCUBATION inactive; negative | Test System: AMES SALMONELLA TYPHIMURIUM, Strain/Indicator: TA100, Metabolic Activation: NONE, Method: STANDARD PLATE inactive; negative | Test System: AMES SALMONELLA TYPHIMURIUM, Strain/Indicator: TA100, Metabolic Activation: PIG, LIVER, S-9, Method: PREINCUBATION inactive; negative | Test System: AMES SALMONELLA TYPHIMURIUM, Strain/Indicator: TA100, Metabolic Activation: RABBIT, LIVER, S-9, Method: STANDARD PLATE inactive; negative | Test System: AMES SALMONELLA TYPHIMURIUM, Strain/Indicator: TA100, Metabolic Activation: RABBIT, LUNG, S-9, Method: STANDARD PLATE inactive; negative | Test System: AMES SALMONELLA TYPHIMURIUM, Strain/Indicator: TA100, Metabolic Activation: RABBIT, NASAL, S-9, Method: STANDARD PLATE inactive; negative | Test System: AMES SALMONELLA TYPHIMURIUM, Strain/Indicator: TA100, Metabolic Activation: RAT, LIVER, S-9, AROCLOR 1254, Method: STANDARD PLATE inactive; negative | Test System: AMES SALMONELLA TYPHIMURIUM, Strain/Indicator: TA100, Metabolic Activation: RAT, LUNG, S-9, Method: STANDARD PLATE inactive; negative | Test System: AMES SALMONELLA TYPHIMURIUM, Strain/Indicator: TA100, Metabolic Activation: RAT, NASAL, S-9, Method: STANDARD PLATE inactive; negative | Test System: AMES SALMONELLA TYPHIMURIUM, Strain/Indicator: TA100, Metabolic Activation: S-9, Method: PREINCUBATION inactive; negative | Test System: AMES SALMONELLA TYPHIMURIUM, Strain/Indicator: TA100, Metabolic Activation: TOBACCO CELLS, Method: PREINCUBATION inactive; negative | Test System: AMES SALMONELLA TYPHIMURIUM, Strain/Indicator: TA1535, Metabolic Activation: NONE, Method: PREINCUBATION inactive; negative | Test System: AMES SALMONELLA TYPHIMURIUM, Strain/Indicator: TA1535, Metabolic Activation: RAT LIVER S-9, ETHANOL (4%), Method: PREINCUBATION inactive; negative | Test System: AMES SALMONELLA TYPHIMURIUM, Strain/Indicator: TA1535, Metabolic Activation: RAT, LIVER, S-9, Method: PREINCUBATION inactive; negative
